# Assay results from patent EP0318029B1, “Cyclic amine and pharmacological composition” (Eisai Co., Ltd., priority 1987, dated 1989).
# System: cerebral cortex slice
# Experiment: Glutamate liberation inhibitory activity in cerebral cortex slice
# Type: cell-based, SD rat
# Conditions: 10⁻⁴ M test compound; rat cerebral cortex slice, 30 min pre-incubation, then 50 mM KCl for 60 min; glutamate determined by HPLC, relative to solvent control
# Description: Glutamate liberation inhibitory activity in cerebral cortex slice
# A male SD rat was decapitated, and cerebral cortices on both sides were then extirpated to prepare a slice having a thickness of 750 µm (weight: 10 to 20 mg) with a McIlwain tissue chopper. The slice was incubated in a Krebs-Henseleit liquid containing a test compound in the form of a solution thereof for 30 minutes. Then the slice was incubated in one ml of a Krebs-Henseleit liquid containing 50 mM of KCl and the test compound solution for 60 mins. For control, a solvent was added to a Krebs-Henseleit liquid containing only 50 mM of KCl.
# The glutamate liberated in the solution was determined by HPLC, and the glutamate liberation inhibitory activity (%) in 10⁻⁴ M of each test compound solution was calculated by the following equation: (1 -(glutamate in each test compound solution)/(amount of glutamate in control group)) x 100 [formula]
smiles,measurement,value
O=C(CN1CCC(Oc2ccc(F)cc2)CC1)c1ccc2ccccc2c1 [compd. of Ex. 3],glutamate liberation inhibitory activity (%) 1 x 10⁻⁴ M,49%
